Assay: molar heat capacity at constant pressure
Conditions: 101.33 kPa, Crystal, DSC

CSCCC(N)C(=O)O (racemic) [DL-2-amino-4-(methylthio)butanoic acid]
Conditions	molar heat capacity at constant pressure [J/K/mol]
208.72 K	145.39
210.22 K	145.59
211.72 K	146.57
213.72 K	147.97
216.22 K	150.38
218.22 K	152.14
221.72 K	155.91
224.22 K	157.49
226.72 K	159.11
227.22 K	159.42
230.22 K	161.3
233.22 K	162.93
236.22 K	164.63
239.22 K	166.6
243.22 K	168.79
247.22 K	170.83
252.22 K	173.41
256.72 K	176.16
260.72 K	178.94
264.22 K	181.37
268.72 K	184.35
271.22 K	184.84
273.22 K	187.3
276.72 K	190.45
279.72 K	192.56
283.22 K	194.93
287.22 K	196.84
291.72 K	199.53
292.22 K	199.85
293.22 K	200.43
294.22 K	201.59
295.22 K	202.47
297.72 K	205.07
298.15 K	205.16
298.22 K	205.65
298.72 K	205.99
301.72 K	208.47
303.72 K	209.85
305.72 K	211.52
307.72 K	212.85
310.22 K	214.89
314.22 K	218.21
318.22 K	222.26
321.22 K	225.76

O=C(O)c1ccccc1 [benzoic acid]
Conditions	molar heat capacity at constant pressure [J/K/mol]
208.72 K	104.86
210.22 K	105.69
211.72 K	106.52
213.72 K	107.61
216.22 K	108.96
218.22 K	110.02
221.72 K	111.86
224.22 K	113.15
226.72 K	114.43
227.22 K	114.68
230.22 K	116.19
233.22 K	117.68
236.22 K	119.14
239.22 K	120.59
243.22 K	122.5
247.22 K	124.38
252.22 K	126.69
256.72 K	128.74
260.72 K	130.54
264.22 K	132.1
268.72 K	134.09
271.22 K	135.19
273.22 K	136.06
276.72 K	137.59
279.72 K	138.9
283.22 K	140.41
287.22 K	142.15
291.72 K	144.1
292.22 K	144.31
293.22 K	144.75
294.22 K	145.18
295.22 K	145.61
297.72 K	146.7
298.15 K	146.89
298.22 K	146.92
298.72 K	147.13
301.72 K	148.44
303.72 K	149.32
305.72 K	150.19
307.72 K	151.07
310.22 K	152.18
314.22 K	153.96
318.22 K	155.75
321.22 K	157.11
